This passage reports Activity results from ChEMBL document CHEMBL2202954, “The effect of PLC-γ2 inhibitors on the growth of human tumour cells” (2012).

Common to all, as to assay type: functional
The test system of one test is T47D. Kind of test: Cytotoxicity against human T47D cells assessed as cellular growth at 10 uM by SRB assay. In general terms: Sulforhodamine B stains cellular protein and so reports cell mass.
Another test deals with BT-549. Kind of test: Cytotoxicity against human BT549 cells assessed as cellular growth at 10 uM by SRB assay.
In the next test the test system is MCF7. Kind of test: Cytotoxicity against human MCF7 cells assessed as cellular growth at 10 uM by SRB assay.
Another test has as its system DU-145. Kind of test: Cytotoxicity against human DU145 cells assessed as cellular growth at 10 uM by SRB assay.
The test system of a further test is PC-3. Kind of test: Cytotoxicity against human PC3 cells assessed as cellular growth at 10 uM by SRB assay.
Another test has as its system SN12C. The test is described as follows: Cytotoxicity against human SN12C cells assessed as cellular growth at 10 uM by SRB assay.
The next test has as its system 786-0. The test is described as follows: Cytotoxicity against human 786-0 cells assessed as cellular growth at 10 uM by SRB assay.
A further test deals with OVCAR-5. The test is described as follows: Cytotoxicity against human OVCAR5 cells assessed as cellular growth at 10 uM by SRB assay.
The next test deals with UACC-62. Kind of test: Cytotoxicity against human UACC62 cells assessed as cellular growth at 10 uM by SRB assay.
For another test, the system named is SK-MEL-5. The test is described as follows: Cytotoxicity against human SK-MEL-5 cells assessed as cellular growth at 10 uM by SRB assay.
The next test concerns HCT-15. Kind of test: Cytotoxicity against human HCT15 cells assessed as cellular growth at 10 uM by SRB assay.
The next test deals with HCC 2998. Kind of test: Cytotoxicity against human HCC2998 cells assessed as cellular growth at 10 uM by SRB assay.
In another test the test system is NCI-H522. The test is described as follows: Cytotoxicity against human NCI-H522 cells assessed as cellular growth at 10 uM by SRB assay.
The next test concerns NCI-H322M. The test is described as follows: Cytotoxicity against human NCI-H322M cells assessed as cellular growth at 10 uM by SRB assay.
The test system of the next test is NCI-H23. Kind of test: Cytotoxicity against human NCI-H23 cells assessed as cellular growth at 10 uM by SRB assay.
In a further test the test system is HOP-92. The test is described as follows: Cytotoxicity against human HOP92 cells assessed as cellular growth at 10 uM by SRB assay.
The subject of a further test is SR. Kind of test: Cytotoxicity against human SR cells assessed as cellular growth at 10 uM by SRB assay.
The next test has as its system RPMI-8226. The test is described as follows: Cytotoxicity against human RPMI8226 cells assessed as cellular growth at 10 uM by SRB assay.
The test system of another test is SF-295. The test is described as follows: Cytotoxicity against human SF295 cells assessed as cellular growth at 10 uM by SRB assay.
A further test concerns OVCAR-4. Kind of test: Cytotoxicity against human OVCAR4 cells assessed as cellular growth at 10 uM by SRB assay.

Take `O=C(Nc1ccc2oc(=O)ccc2c1)c1ccc(-c2ccc(Br)cc2)o1`: the Activity in the test with T47D is recorded as 100.95%; in the test on BT-549 it was 118.79%; with MCF7, 98.67%; in the test with DU-145 it was 109.38%; with PC-3, 111.02%; in the test with SN12C it was 99.06%. Also, the Activity in the test on 786-0 stood at 95.42%; with OVCAR-5, 121.34%; with UACC-62 it was 104.75%; with SK-MEL-5, 100.82%; in the test on HCT-15, 108.33%; in the test with HCC 2998, 112.96%. Further, the Activity in the test with NCI-H522 was determined as 105.32%; in the test on NCI-H322M it was 154.44%; in the test on NCI-H23, 103.68%; in the test on HOP-92, 97.44%; in the test with SR, 102.2%; in the test with RPMI-8226, 108.92%.

Turning to `Oc1ccccc1-c1nc(-c2cccs2)no1`, the Activity was determined as 76.43% with T47D; 92.36% in the test on BT-549; 56.48% with MCF7; 114.11% with DU-145; 85.02% in the test with PC-3; 90.61% with SN12C. Moreover, the Activity in the test on 786-0 is given as 101.07%; with UACC-62 it was 89.11%; with SK-MEL-5 it was 88.2%; in the test with SF-295, 109.56%; with HCT-15, 64.4%; with HCC 2998, 83.27%. The Activity in the test on NCI-H522 stood at 96.76%; in the test on NCI-H322M, 116.66%; with NCI-H23, 94.82%; in the test on HOP-92 it was 50.86%; in the test on RPMI-8226, 87.52%.

As to `CC1(C)CCc2cc(-c3ccn(S(=O)(=O)c4cccc(C(F)(F)F)c4)n3)ccc2O1`, the Activity is 66.31% with T47D; 119.64% in the test on BT-549; 87.68% in the test on MCF7; 98.46% in the test on DU-145; 88.93% in the test on PC-3; 91.59% in the test on SN12C. For the same molecule, the Activity in the test with 786-0 came to 85.72%; in the test with OVCAR-5 it was 108.57%; in the test on UACC-62, 84.21%; with SK-MEL-5, 69.29%; with SF-295 it was 108.32%; in the test with HCT-15, 89.34%. The Activity in the test on HCC 2998 is reported as 104.44%; in the test on NCI-H522 it was 87.1%; in the test on NCI-H322M it was 106.64%; in the test with NCI-H23, 81.53%; in the test with HOP-92, 38.91%; in the test with SR, 66.68%. Moreover, in the test with RPMI-8226, the Activity came to 68.84%.

As for `Cc1ccc(NC(=O)c2sc3nc(-c4cccs4)ccc3c2N)cc1C`, the Activity in the test on T47D turned out to be 96.25%; in the test with BT-549, 133.54%; in the test on MCF7 it was 109.1%; in the test on DU-145, 103.5%; in the test on PC-3 it was 101.43%; in the test on SN12C, 100.59%. The Activity with 786-0 turned out to be 105.46%; in the test with OVCAR-5, 115.16%; in the test with UACC-62, 89.05%; in the test with SK-MEL-5, 98.52%; with SF-295 it was 110.27%; in the test with HCT-15, 109.09%. Moreover, the Activity in the test with HCC 2998 is 105.35%; with NCI-H522, 100.77%; in the test with NCI-H322M, 123.82%; in the test on NCI-H23 it was 111.92%; with HOP-92, 106.34%; with SR, 82.09%. For the same molecule, in the test on RPMI-8226, the Activity is 103.98%.

Turning to `O=c1/c(=C/c2ccc(Cl)cc2Cl)sc2nc(-c3ccccc3)nn12`, the Activity was 90.03% in the test on T47D; 122.09% in the test with BT-549; 103.07% with MCF7; 102.1% in the test on DU-145; 106.44% with PC-3; 94.22% with SN12C. Besides, the Activity with 786-0 is 103.31%; in the test on UACC-62, 89.1%; with SK-MEL-5, 106.75%; in the test with SF-295, 118.28%; in the test on HCT-15 it was 100.58%; in the test on HCC 2998 it was 117.6%. Moreover, the Activity in the test with NCI-H522 is 98.76%; with NCI-H322M, 127.05%; in the test on NCI-H23 it was 101.62%; in the test with HOP-92 it was 104.34%; in the test on SR, 94.63%; with RPMI-8226, 112.43%.

Consider `CC1(C)CCc2cc(-c3ccn(S(=O)(=O)c4ccccc4Cl)n3)ccc2O1`, for which the Activity is 58.8% with T47D; 99.65% in the test on BT-549; 73.21% in the test with MCF7; 93.97% with DU-145; 70.67% in the test on PC-3; 75.88% in the test on SN12C. The Activity was 71.72% in the test on 786-0; 92.37% in the test on OVCAR-5; 81.14% in the test with UACC-62; 75.14% in the test on SK-MEL-5; 46.19% in the test on HCT-15; 81.67% with HCC 2998. Further, the Activity is 77.85% in the test on NCI-H522; 126.42% in the test on NCI-H322M; 76.98% in the test with NCI-H23; 49.12% with HOP-92; 72.9% with SR; 70.97% with RPMI-8226.

On to `CC1(C)CC(=O)c2cc3c(N)c(C(=O)Nc4ccccc4Cl)sc3nc2C1`, for which the Activity is recorded as 99.6% in the test on T47D; 128% with BT-549; 111.34% in the test with MCF7; 109.85% in the test with DU-145; 105.8% with PC-3; 104.5% in the test on SN12C. In addition, the Activity with 786-0 worked out at 102.03%; in the test on UACC-62, 100.17%; in the test on SK-MEL-5, 100.73%; in the test on SF-295, 96.7%; with HCT-15 it was 98.89%; in the test with HCC 2998, 107.92%. Further, the Activity in the test on NCI-H522 is given as 102.8%; in the test on NCI-H322M, 131.48%; with NCI-H23, 108.01%; in the test on HOP-92, 103.08%; with RPMI-8226, 108.32%.

For the molecule `c1ccc(-c2nc(-c3cccs3)no2)cc1`, the Activity is on record as 65.5% with T47D; 105.93% with BT-549; 52.58% with MCF7; 103.67% in the test on DU-145; 96.07% in the test with PC-3; 91.08% in the test with SN12C. For the same molecule, the Activity is listed as 107.03% in the test on 786-0; 93.02% in the test on UACC-62; 97.58% with SK-MEL-5; 128.58% in the test with SF-295; 94.44% with HCT-15; 117.01% with HCC 2998. In addition, the Activity in the test with NCI-H522 is 96.9%; in the test on NCI-H322M it was 122.94%; in the test on NCI-H23, 93.94%; in the test with HOP-92, 75.75%; in the test on SR, 97.61%; with RPMI-8226, 102.22%.

On to `Nc1c(C(=O)Nc2cccc(Cl)c2)sc2nc3c(cc12)C(=O)CCC3`, for which the Activity in the test on T47D worked out at 52.94%; with BT-549, 66.38%; with MCF7 it was 16.68%; in the test with DU-145 it was 11.61%; in the test with PC-3 it was 29.1%; in the test on SN12C it was 54.42%. Also, the Activity is 47.72% with 786-0; 60.44% with OVCAR-4; 58.33% in the test with OVCAR-5; 43.7% in the test on UACC-62; 27.21% with SK-MEL-5; -20.21% with SF-295. Besides, the Activity in the test on HCT-15 is recorded as 32.41%; in the test with HCC 2998 it was 8.27%; in the test on NCI-H522 it was 14.59%; in the test with NCI-H322M it was 71.82%; in the test with NCI-H23, 38%; in the test with SR, 39.11%. Further, the Activity in the test with RPMI-8226 was determined as 51.81%.

As to `O=S(=O)(Oc1ccc(-c2cnc3ccccc3n2)cc1)c1ccccc1`, the Activity in the test on T47D was 86.45%; in the test on BT-549 it was 96.82%; in the test with MCF7, 94.53%; in the test on DU-145 it was 107.72%; in the test on PC-3, 89.87%; in the test with SN12C it was 95.17%. For the same molecule, the Activity with 786-0 is on record as 92.9%; with OVCAR-4 it was 96.73%; with OVCAR-5 it was 101.99%; in the test with UACC-62 it was 78.48%; with SK-MEL-5, 92.11%; in the test on SF-295, 94.02%. The Activity was 98.25% with HCT-15; 99.83% in the test on HCC 2998; 78.75% in the test on NCI-H522; 107.81% in the test on NCI-H322M; 96.29% with NCI-H23; 85.09% in the test with SR. Besides, the Activity in the test on RPMI-8226 is 87.36%.
